From US20230173032A1, “Treatment of Hyperuricemia” (Frederiksberg Hospital, priority 2020, published 2023) come the findings set out here.

The nature of data set [1]: LOSE-IT trial (NCT02905864): serious adverse events and deaths. Type of data set: in vivo, human. The following applies: liraglutide 3 mg/day, 52 weeks. On the procedure: Methods: In the LOSE-IT trial (NCT02905864), a randomised, double-blinded, placebo-controlled, parallel group, single-centre trial, 156 overweight and obese individuals with knee joint pain, were offered an initial 8-week intensive diet intervention (week −8 to 0) on Cambridge Weight Plan (800-1000 kcal/day) followed by a weight loss maintenance period in which participants were randomised to either liraglutide 3 mg/day or placebo for 52 weeks. Subjects with type 1 diabetes or type 2 diabetes with glucose-lowering drugs other than metformin were excluded from the study.

A short description of data set [2]: Semaglutide case studies: treatment emergent adverse events. Type of data set: in vivo, human. The method, then: Two patients with chronic gout and no diabetes where treated with another type of GLP-1 analog: Semaglutide subcutaneous (sc) once weekly.
Person, gout since more than 3 years no diabetes. Received 0.25 mg weekly for 6 weeks and then 0.5 mg twice.
Person, gout since more than 4 years, no diabetes. Received 0.25 mg sc for 6 weeks and 0.5 mg sc for 4 weeks.

On to `CCCCCCCCCCCCCCCC(=O)N[C@@H](CCC(=O)NCCCC[C@H](NC(=O)[C@H](C)NC(=O)[C@H](C)NC(=O)[C@H](CCC(N)=O)NC(=O)CNC(=O)[C@H](CCC(=O)O)NC(=O)[C@H](CC(C)C)NC(=O)[C@H](Cc1ccc(O)cc1)NC(=O)[C@H](CO)NC(=O)[C@H](CO)NC(=O)[C@@H](NC(=O)[C@H](CC(=O)O)NC(=O)[C@H](CO)NC(=O)[C@@H](NC(=O)[C@H](Cc1ccccc1)NC(=O)[C@@H](NC(=O)CNC(=O)[C@H](CCC(=O)O)NC(=O)[C@H](C)NC(=O)[C@@H](N)Cc1cnc[nH]1)[C@@H](C)O)[C@@H](C)O)C(C)C)C(=O)N[C@@H](CCC(=O)O)C(=O)N[C@@H](Cc1ccccc1)C(=O)N[C@H](C(=O)N[C@@H](C)C(=O)N[C@@H](Cc1c[nH]c2ccccc12)C(=O)N[C@@H](CC(C)C)C(=O)N[C@H](C(=O)N[C@@H](CCCNC(=N)N)C(=O)NCC(=O)N[C@@H](CCCNC(=N)N)C(=O)NCC(=O)O)C(C)C)[C@@H](C)CC)C(=O)O` [liraglutide, Arg34, Lys26-(N-epsilon-(gamma-L-glutamyl(N-alfa-hexadecanoyl)))-GLP-I(7-37)], for which, in data set [1], the deaths result is recorded as “no deaths were observed” and the “participants who experienced serious adverse events” value is on record as “Four”.
`CC[C@H](C)[C@H](NC(=O)[C@H](Cc1ccccc1)NC(=O)[C@H](CCC(=O)O)NC(=O)[C@H](CCCCNC(=O)COCCOCCNC(=O)COCCOCCNC(=O)CC[C@H](NC(=O)CCCCCCCCCCCCCCCCC(=O)O)C(=O)O)NC(=O)[C@H](C)NC(=O)[C@H](C)NC(=O)[C@H](CCC(N)=O)NC(=O)CNC(=O)[C@H](CCC(=O)O)NC(=O)[C@H](CC(C)C)NC(=O)[C@H](Cc1ccc(O)cc1)NC(=O)[C@H](CO)NC(=O)[C@H](CO)NC(=O)[C@@H](NC(=O)[C@H](CC(=O)O)NC(=O)[C@H](CO)NC(=O)[C@@H](NC(=O)[C@H](Cc1ccccc1)NC(=O)[C@@H](NC(=O)CNC(=O)[C@H](CCC(=O)O)NC(=O)C(C)(C)NC(=O)[C@@H](N)Cc1cnc[nH]1)[C@@H](C)O)[C@@H](C)O)C(C)C)C(=O)N[C@@H](C)C(=O)N[C@@H](Cc1c[nH]c2ccccc12)C(=O)N[C@@H](CC(C)C)C(=O)N[C@H](C(=O)N[C@@H](CCCNC(=N)N)C(=O)NCC(=O)N[C@@H](CCCNC(=N)N)C(=O)NCC(=O)O)C(C)C` [Semaglutide]: the “treatment emergent adverse events, Patient 1” value in data set [2] (8 weeks treatment, nausea during the first 2 weeks) was “No treatment emergent adverse events were experienced apart from slight nausea”. Further, the “treatment emergent adverse events, Patient 2” value in data set [2] (10 weeks treatment) was “No treatment emergent adverse events were experienced apart from slight constipation”.
